According to paper PMC11272598, “RG7774 (Vicasinabin), an orally bioavailable cannabinoid receptor 2 (CB2R) agonist, decreases retinal vascular permeability, leukocyte adhesion, and ocular inflammation in animal models” (Frontiers in Pharmacology, 2024):
Several values for one entry are separate records, joined by “and”; a condition that tells them apart may be missing. Equal entries are not always repeated.

Tests used:
[1] = molecular target: T1, human CB2R (Homo sapiens, UniProt P34972); assay: Forskolin-stimulated cAMP assay in CHO cells; type: cell-based
T1 construct: bgal (beta-galactosidase fragment of the PathHunter system); host or cells: CHO-K1
Description: (§1) The inhibitory effects of RG7774 on forskolin-stimulated accumulation of cAMP were determined using the cAMP-Nano-TRF detection kit (Roche Diagnostics, Penzberg, Germany), as previously described ([Porter et al., 2019]). CHOK1hCB1_bgal, CHOK1mCB2_bgal, and CHOK1hCB2_bgal cells (DiscoveRx, Fremont, CA, United States) were seeded 17–24 h prior to the experiment at a density of 3 × 10^4 cells per well in a black 96-well plate with a flat, clear bottom (Corning, Wiesbaden, Germany) prior to incubating in 5% CO2 at 37°C in a humidified incubator. The growth medium was exchanged with Krebs Ringer bicarbonate buffer containing 1 mM IBMX and 0.1% fatty acid-free BSA and incubated at 30°C for 1 h. RG7774 or positive control (CP55940) (1 µM) was added to a 0.1 mL final assay volume and the mixture was incubated at 30°C for 30 min. The assay was stopped by adding 50 μL 3x lysis reagent and shaking for 2 h at RT. The time-resolved energy transfer was measured using an LF502 Nanoscan FLT (IOM, Berlin, Germany) equipped with a laser excitation source. cAMP content was determined from a standard curve spanning 10–0.13 nM cAMP. Efficacies were expressed as a percentage relative to the positive control.

[2] = molecular target: T2, recombinant mouse CB2R (Mus musculus, UniProt P47936); assay: Forskolin-stimulated cAMP assay in CHO cells; type: cell-based
T2 construct: bgal (beta-galactosidase fragment of the PathHunter system); host or cells: CHO-K1
Description: as §1

[3] = molecular target: T3, Human MAGL (Homo sapiens, UniProt Q99685); assay: Human MAGL assay (U937 cell extracts); type: biochemical; conditions: RG7774 10 µM; read-out: Mean ± SEM % inhibition of control, Human MAGL
T3 construct: Mouse brain or human U937 cell extracts (ATCC, Manassas, VI, USA); host or cells: U937 cells, 100,000 g supernatant
Description: The final supernatant was incubated with [^3H]-2-OG (10 µM) (ARC, MO, USA) at 37°C for 30 min as previously described, and reactions were stopped with a 2:1 (v/v) mixture of chloroform/methanol. [^3H]-glycerol release in the aqueous phase was measured by scintillation counting. […] Human supernatant (100 µg) was preincubated for 15 min at RT with 8 different concentrations of RG7774 (0.1-500 µM) in the incubation medium.

[4] = test system: Human EMT; assay: Human EMT activity (HaCaT cells); type: cell-based; conditions: RG7774 10 µM
Description: HaCaT cells were seeded (350,000–400,000 cell/well) in triplicate in 12-well plates and incubated for 15 min in PBS at 37°C with [^3H]-N-arachidonoylethanolamine ([^3H]-AEA) (400 nM) (ARC, MO, USA), as previously reported. Experiments were repeated at 4°C in order to subtract passive diffusion from EMT-mediated uptake. RG7774 (10 µM) was preincubated with labeled HaCaT cells for 15 min before adding directly to the incubation medium (PBS). The selective EMT inhibitor, OMDM-1 (40 µM), was used as positive control.

[5] = test system: retinal microglia migration; assay: Laser-induced CNV in rats, microglia volume on laser lesions; type: in vivo, Brown Norway rats
Description: Right eyes were transferred to a petri dish containing 10% neutral-buffered formalin (NBF) and fixed for 5 min at RT. Eyes were prepared in PBS^−/– by removing the anterior segments and carefully separating the retinas from the posterior segments (retinal pigment epithelium/choroid and sclera). Dissected retinas were cut into petals, transferred to 2 × 24 well plates containing fresh 10% NBF solution, and fixed for 2 h at RT. […]
Microglia migration towards laser-injured retinal regions was quantified from 3D RGB-images (CZI-files) of the fluorescently labeled retinal samples, a workflow and image analytics tool was applied that allowed a semi-automated volumetric quantitation of Iba1-positive pixel per image frame integrated over the Z-dimension. […] Subsequently, TIFF images were analyzed using IDL (Interactive Data Language, Version 6.4) in combination with Excel 2010 to compute RGB-channel-dependent threshold images (pdf-files) with a histogram between 1–255 A.U. pixel intensity. […] The sum of pixels displaying the determined threshold intensity or higher was calculated and finally integrated over the Z-dimension of the 3D image.

T1 sequence (P34972 whole entry, the tested form may be a part): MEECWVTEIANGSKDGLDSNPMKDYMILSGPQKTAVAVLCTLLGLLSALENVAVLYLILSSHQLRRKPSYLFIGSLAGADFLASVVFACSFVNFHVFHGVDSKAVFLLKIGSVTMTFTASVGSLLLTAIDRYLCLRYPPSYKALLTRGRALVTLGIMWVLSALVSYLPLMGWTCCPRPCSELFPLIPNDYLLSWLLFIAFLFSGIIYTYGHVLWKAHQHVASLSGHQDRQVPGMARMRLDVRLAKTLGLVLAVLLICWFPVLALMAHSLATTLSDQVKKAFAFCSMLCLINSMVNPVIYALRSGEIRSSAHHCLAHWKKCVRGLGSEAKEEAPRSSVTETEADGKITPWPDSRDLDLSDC
T2 sequence (P47936 whole entry, the tested form may be a part): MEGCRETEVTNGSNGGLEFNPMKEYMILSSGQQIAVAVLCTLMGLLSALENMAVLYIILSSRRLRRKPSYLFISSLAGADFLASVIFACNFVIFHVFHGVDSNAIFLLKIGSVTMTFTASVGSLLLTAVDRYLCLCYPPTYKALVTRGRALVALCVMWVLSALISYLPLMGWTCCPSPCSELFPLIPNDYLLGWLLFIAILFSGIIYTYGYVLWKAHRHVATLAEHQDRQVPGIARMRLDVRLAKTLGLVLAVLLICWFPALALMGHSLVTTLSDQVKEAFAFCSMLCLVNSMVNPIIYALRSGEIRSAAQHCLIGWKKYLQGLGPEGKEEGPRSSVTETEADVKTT
T3 sequence (Q99685 whole entry): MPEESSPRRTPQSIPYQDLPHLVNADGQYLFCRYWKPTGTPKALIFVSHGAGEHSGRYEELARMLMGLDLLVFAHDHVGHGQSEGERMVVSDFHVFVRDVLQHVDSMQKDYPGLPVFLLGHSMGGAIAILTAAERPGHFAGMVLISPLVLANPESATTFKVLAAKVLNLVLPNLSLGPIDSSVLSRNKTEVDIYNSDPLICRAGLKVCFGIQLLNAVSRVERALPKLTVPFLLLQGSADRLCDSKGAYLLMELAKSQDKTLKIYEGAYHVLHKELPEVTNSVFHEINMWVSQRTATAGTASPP

Cn1nnnc1Cn1nnc2c(N3CC[C@H](O)C3)nc(C(C)(C)C)nc21 [RG7774, (S)-1-(5-tert-butyl-3-[(1-methyl-1H-tetrazol-5-yl)methyl]-3H-[1,2,3]triazolo[4,5-d]pyrimidin-7-yl)pyrrolidin-3-ol]
EC50 ([1]; EC50, inhibition of forskolin-induced cAMP, human CB2R, recombinant CHO cells): 2.8 nM and 2.81 nM | functional affinity for human CB2R over CB1R ([1]; cAMP assays): > 3,600 fold | efficacy compared to maximum efficacy of CP55940, human CB2R ([1]; cAMP, CHO cells): full agonist | EC50 [2]: 2.6 ± 0.14 nM | efficacy compared to maximum efficacy of CP55940, mouse CB2R ([2]; cAMP, CHO cells): full agonist | inhibition at 10 µM [3]: -9.7% | Mean ± SEM % inhibition of control, Human EMT [4]: 4.5 ± 25.5% | reduction of microglia volumes in lasered versus non-lasered regions ([5]; 3 mg/kg oral gavage): 25% | reduction of microglia volumes in lasered versus non-lasered regions ([5]; 10 mg/kg oral gavage): 41%
